# Measurements reported in patent US20090069565A1, “NEW INDOLE DERIVATIVES AS FACTOR XA INHIBITORS” (priority 2001, published 2009).
# Target: human factor Xa (Homo sapiens, UniProt P00742)
# Test: Factor Xa assay (chromogenic, substrate S-2765);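 also: purified enzyme preincubated with inhibitor for 10 min before substrate addition, final reaction volume 100 µl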
# Type: biochemical
# Settings: not given
# human factor Xa, sequence (P00742 235-488 limits assumed): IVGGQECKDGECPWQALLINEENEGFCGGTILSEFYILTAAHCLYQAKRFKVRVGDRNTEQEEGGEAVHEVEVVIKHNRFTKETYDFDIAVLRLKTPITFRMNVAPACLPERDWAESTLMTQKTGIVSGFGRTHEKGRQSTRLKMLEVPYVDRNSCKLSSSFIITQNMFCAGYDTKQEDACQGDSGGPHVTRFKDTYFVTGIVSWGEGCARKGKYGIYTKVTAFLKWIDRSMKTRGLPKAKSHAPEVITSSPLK
# human factor Xa, sequence (P00742 41-179 partner limits assumed): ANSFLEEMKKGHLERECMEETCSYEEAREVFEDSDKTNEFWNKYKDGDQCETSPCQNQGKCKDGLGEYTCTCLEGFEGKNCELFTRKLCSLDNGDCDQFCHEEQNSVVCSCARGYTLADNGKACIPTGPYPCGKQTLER
row,Compound,Ki [nM]
1,"O=C(c1cc2ccccc2n1Cc1cc(-c2ccc(Cl)s2)on1)N(c1ccncc1)C1CCN(c2ccncc2)CC1 [Example 204, 1-[5-(5-Chloro-thiophen-2-yl)-isoxazol-3-ylmethyl]-1H-indole-2-carboxylic acid pyridin-4-yl-(3,4,5,6-tetrahydro-2H-[1,4′]bipyridinyl-4-yl)-amide]",74
2,"O=C(c1cc2cc([N+](=O)[O-])ccc2n1Cc1cc(-c2ccc(Cl)s2)on1)N(c1ccncc1)C1CCN(c2ccncc2)CC1 [Example 205, 1-[5-(5-Chloro-thiophen-2-yl)-isoxazol-3-ylmethyl]-5-nitro-1H-indole-2-carboxylic acid pyridin-4-yl-(3,4,5,6-tetrahydro-2H-[1,4′]bipyridinyl-4-yl)-amide]",34

# Same assay, conditions: inhibition constant for factor Xa; purified enzyme 0.5 nM, substrate S-2765 140 μM, 25° C., pH 7.8; Ki=IC50/{1+(substrate concentration/Km)}; read-out: Ki(FXa)
row,Compound,Ki [nM]
1,"NC(=O)N1CCC(NC(=O)c2cc3ccccc3n2Cc2cc(-c3ccc(Cl)s3)on2)CC1 [Example 190, 1-[5-(5-Chloro-thiophen-2-yl)-isoxazol-3-ylmethyl]-1H-indole-2-carboxylic acid (1-carbamoyl-piperidin-4-yl)-amide]",1080
2,"CC(=O)N1CCC(NC(=O)c2cc3ccccc3n2Cc2cc(-c3ccc(Cl)s3)on2)CC1 [Example 192, 1-[5-(5-Chloro-thiophen-2-yl)-isoxazol-3-ylmethyl]-1H-indole-2-carboxylic acid (1-acetyl-piperidin-4-yl)-amide]",763
3,"O=C(NC1CCN(c2ccncn2)CC1)c1cc2ccccc2n1Cc1cc(-c2ccc(Cl)s2)on1 [Example 194, 1-[5-(5-Chloro-thiophen-2-yl)-isoxazol-3-ylmethyl]-1H-indole-2-carboxylic acid (1-pyrimidin-4-yl-piperidin-4-yl)-amide]",95
4,"CC(C)CN1CCC(NC(=O)c2cc3ccccc3n2Cc2cc(-c3ccc(Cl)s3)on2)CC1 [Example 199, 1-[5-(5-Chloro-thiophen-2-yl)-isoxazol-3-ylmethyl]-1H-indole-2-carboxylic acid (1-isobutyl-piperidin-4-yl)-amide]",142
5,CCCN1CCC(NC(=O)c2cc3ccccc3n2Cc2cc(-c3ccc(Cl)s3)on2)CC1 [Example 200],64
6,"CC(C)N1CCC(NC(=O)c2cc3ccccc3n2Cc2cc(-c3ccc(Cl)cc3)no2)CC1 [Example 211, 1-[3-(4-Chloro-phenyl)-isoxazol-5-ylmethyl]-1H-indole-2-carboxylic acid (1-isopropyl-piperidin-4-yl)-amide]",400
7,"CC(C)N1CCC(NC(=O)c2cc3ccccc3n2Cc2cc(-c3ccc(Cl)cc3)on2)CC1 [Example 212, 1-[5-(4-Chloro-phenyl)-isoxazol-3-ylmethyl]-1H-indole-2-carboxylic acid (1-isopropyl-piperidin-4-yl)-amide]",810
8,"CC(C)N1CCC(NC(=O)c2cc3ccccc3n2Cc2nc(-c3ccc(Cl)cc3)no2)CC1 [Example 213, 1-[3-(4-Chloro-phenyl)-[1,2,4]oxadiazol-5-ylmethyl]-1H-indole-2-carboxylic acid (1-isopropyl-piperidin-4-yl)-amide]",2230
9,"CC(C)N1CC[C@@H](NC(=O)c2cc3ccccc3n2Cc2cc(-c3ccc(Cl)s3)on2)C1 [Example 221, R-1-[5-(5-Chloro-thiophen-2-yl)-isoxazol-3-ylmethyl]-1H-indole-2-carboxylic acid (1-isopropyl-pyrrolidin-3-yl)-amide]",48
10,"CC(C)N1CC[C@H](NC(=O)c2cc3ccccc3n2Cc2cc(-c3ccc(Cl)s3)on2)C1 [Example 222, S-1-[5-(5-Chloro-thiophen-2-yl)-isoxazol-3-ylmethyl]-1H-indole-2-carboxylic (1-isopropyl-pyrrolidin-3-yl)-amide]",103

# Same assay, conditions: read-out: Ki(FXa)
row,Compound,Ki [nM]
1,"CS(=O)(=O)N1CCC(NC(=O)c2cc3ccccc3n2Cc2cc(-c3ccc(Cl)s3)on2)CC1 [Example 191, 1-[5-(5-Chloro-thiophen-2-yl)-isoxazol-3-ylmethyl]-1H-indole-2-carboxylic acid (1-methanesulfonyl-piperidin-4-yl)-amide]",136
2,"O=C(NC1CCN(c2ccnc(Cl)n2)CC1)c1cc2ccccc2n1Cc1cc(-c2ccc(Cl)s2)on1 [Example 193, 1-[5-(5-Chloro-thiophen-2-yl)-isoxazol-3-ylmethyl]-1H-indole-2-carboxylic acid [1-(2-chloro-pyrimidin-4-yl)-piperidin-4-yl]-amide]",199
3,"COC(=O)N1CCC(NC(=O)c2cc3ccccc3n2Cc2cc(-c3ccc(Cl)s3)on2)CC1 [Example 201, 4-({1-[5-(5-Chloro-thiophen-2-yl)-isoxazol-3-ylmethyl]-1H-indole-2-carbonyl}-amino)-piperidine-1-carboxylic acid methyl ester]",1780
4,"CC(C)N1CCN(NC(=O)c2cc3ccccc3n2Cc2cc(-c3ccc(Cl)s3)on2)CC1 [Example 202, 1-[5-(5-Chloro-thiophen-2-yl)-isoxazol-3-ylmethyl]-1H-indole-2-carboxylic acid (4-isopropyl-piperazin-1-yl)-amide]",20
5,"CCN1CCN(NC(=O)c2cc3ccccc3n2Cc2cc(-c3ccc(Cl)s3)on2)CC1 [Example 203, 1-[5-(5-Chloro-thiophen-2-yl)-isoxazol-3-ylmethyl]-1H-indole-2-carboxylic acid (4-ethyl-piperazin-1-yl)-amide]",28
6,"N#Cc1c(C(=O)NC2CCN(c3ccncc3)CC2)n(Cc2cc(-c3ccc(Cl)s3)on2)c2ccccc12 [Example 206, 1-[5-(5-Chloro-thiophen-2-yl)-isoxazol-3-ylmethyl]-3-cyano-1H-indole-2-carboxylic acid (3,4,5,6-tetrahydro-2H-[1,4′]bipyridinyl-4-yl)-amide]",12
7,"COc1ccc(C#N)c2c1c(C#N)c(C(=O)NC1CCN(C(C)C)CC1)n2Cc1cc(-c2ccc(Cl)s2)on1 [Example 208, 1-[5-(5-Chloro-thiophen-2-yl)-isoxazol-3-ylmethyl]-3,7-dicyano-4-methoxy-1H-indole-2-carboxylic acid (1-isopropyl-piperidin-4-yl)-amide]",1
8,"CC(C)N1CCC(NC(=O)c2cc3ccccc3n2Cc2cc3ccc(Cl)cc3c(Cl)n2)CC1 [Example 210, 1-(1,7-Dichloro-isoquinolin-3-ylmethyl)-1H-indole-2-carboxylic acid (1-isopropyl-piperidin-4-yl)-amide]",79
9,"CC(C)N1CCC(NC(=O)c2cc3cc(S(C)(=O)=O)ccc3n2CC(=O)Nc2ccc(Cl)cn2)CC1 [Example 214, 1-[(5-Chloro-pyridin-2-ylcarbamoyl)-methyl]-5-methanesulfonyl-1H-indole-2-carboxylic acid (1-isopropyl-piperidin-4-yl)-amide]",52
10,"CC(C)N1CCC(NC(=O)c2cc3cc(S(C)(=O)=O)ccc3n2CC(=O)Nc2ccc(Cl)cc2)CC1 [Example 215, 1-[(4-Chloro-phenylcarbamoyl)-methyl]-5-methanesulfonyl-1H-indole-2-carboxylic acid (1-isopropyl-piperidin-4-yl)-amide]",23
11,"CC(C)N1CCC(NC(=O)c2cc3cc(Cl)ccc3n2CC(=O)Nc2ccc(Cl)cn2)CC1 [Example 216, 5-Chloro-1-[(5-chloro-pyridin-2-ylcarbamoyl)-methyl]-1H-indole-2-carboxylic acid (1-isopropyl-piperidin-4-yl)-amide]",9
12,"CC(C)N1CCC(NC(=O)c2cc3cc(F)ccc3n2CC(=O)Nc2ccc(Cl)cn2)CC1 [Example 217, 1-[(5-Chloro-pyridin-2-ylcarbamoyl)-methyl]-5-fluoro-1H-indole-2-carboxylic acid (1-isopropyl-piperidin-4-yl)-amide]",700
13,"CC(C)N1CCC(NC(=O)c2cc3cc(F)cc(F)c3n2CC(=O)Nc2ccc(Cl)cn2)CC1 [Example 218, 1-[(5-Chloro-pyridin-2-ylcarbamoyl)-methyl]-5,7-difluoro-1H-indole-2-carboxylic acid (1-isopropyl-piperidin-4-yl)-amide]",1
14,CCN1CC[C@H](NC(=O)c2cc3ccccc3n2Cc2cc(-c3ccc(Cl)s3)on2)C1 [Example 219],173
15,"CCN1CC[C@@H](NC(=O)c2cc3ccccc3n2Cc2cc(-c3ccc(Cl)s3)on2)C1 [Example 220, R-1-[5-(5-Chloro-thiophen-2-yl)-isoxazol-3-ylmethyl]-1H-indole-2-carboxylic acid (1-ethyl-pyrrolidin-3-yl)-amide]",102
16,"CCOC(=O)CN(C(=O)c1cc2c(C(F)(F)F)cccc2n1Cc1cc(-c2ccc(Cl)s2)on1)C1CCN(C(C)C)CC1 [Example 223, [{1-[5-(5-Chloro-thiophen-2-yl)-isoxazol-3-ylmethyl]-4-trifluoromethyl-1H-indole-2-carbonyl}-(1-isopropyl-piperidin-4-yl)-amino]-acetic acid ethyl ester]",110
17,"CCOC(=O)CN(C(=O)c1cc2c(C)ccc(C)c2n1Cc1cc(-c2ccc(Cl)s2)on1)C1CCN(C(C)C)CC1 [Example 224, [{1-[5-(5-Chloro-thiophen-2-yl)-isoxazol-3-ylmethyl]-4,7-dimethyl-1H-indole-2-carbonyl}-(1-isopropyl-piperidin-4-yl)-amino]-acetic acid ethyl ester]",21
18,"CCOC(=O)CN(C(=O)c1cc2c(OC)ccc(OC)c2n1Cc1cc(-c2ccc(Cl)s2)on1)C1CCN(C(C)C)CC1 [Example 225, [{1-[5-(5-Chloro-thiophen-2-yl)-isoxazol-3-ylmethyl]-4,7-dimethoxy-1H-indole-2-carbonyl}-(1-isopropyl-piperidin-4-yl)-amino]-acetic acid ethyl ester]",26
19,"CCOC(=O)CN(C(=O)c1cc2c(Cl)ccc(Cl)c2n1Cc1cc(-c2ccc(Cl)s2)on1)C1CCN(C(C)C)CC1 [Example 226, [{4,7-Dichloro-1-[5-(5-chloro-thiophen-2-yl)-isoxazol-3-ylmethyl]-1H-indole-2-carbonyl}-(1-isopropyl-piperidin-4-yl)-amino]-acetic acid ethyl ester]",83
20,"CCOC(=O)CN(C(=O)c1cc2cc(Cl)cc(Cl)c2n1Cc1cc(-c2ccc(Cl)s2)on1)C1CCN(C(C)C)CC1 [Example 227, [{5,7-Dichloro-1-[5-(5-chloro-thiophen-2-yl)-isoxazol-3-ylmethyl]-1H-indole-2-carbonyl}-(1-isopropyl-piperidin-4-yl)-amino]-acetic acid ethyl ester]",88
